{"source": "patent US20260138976A1", "about": "(Hoffmann-La Roche Inc., priority 2022, published 2026)", "tested_on": "MV-3 cells", "assay": "T-cell - TCB - MV3 killing assay", "format": "cell-based, human", "settings": "for Emax: Homo sapiens, MV-3, 120 h, % TCL normalized: MCSP-TCB only = neutral control, 20 μM reference compound A1 = 100%, read-out: MSCP TCB killing MV-3 cells 5 d Emax (%); for EC50: primary human T-cells + MV-3 RFP cells, MCSP-TCB 1.5 pM-5 pM, 120 hours imaging, read-out: MSCP TCB killing MV-3 cells 5 d EC50", "experimental": "All culturing steps are executed at 5% CO2, 37° C. and 95% humidity. MV-3 RFP cells are cultured in MV-3 medium (DMEM+10% FBS, 1× PenStrep and 0.5 μg/mL Puromycin) for at least 3 weeks. Cultured MV-3 cells at 80% confluency are washed once with PBS−− and trypsinized until detached. […] Cells are seeded with 100 μL/well into a 96-well plate (TTP, #92696), and placed for 40 minutes without moving at room temperature in order to achieve evenly distributed attachment of cells. Plates are then incubated until further use.\nOn the next day, expanded primary human T-cells are thawed and resuspended in T-cell medium to 4*10^6 cells/mL. For 3 hours, they are cultured in a 6-well plate with 6 mL per well at maximum. After culturing the T-cells, they are filtered through a cell strainer (Miltenyi Biotech, #130-041-407), counted again, and cell concentration is adjusted to 2*10^6 cells/mL.\nMCSP-TCB or PBS are pre-diluted in T-cell medium (concentration depending on T-cell donor), 4 times more concentrated than the end-concentration. 60 μL/well of pre-dilutions are then distributed into a round bottom plate (Costar, #3799) according to plate layout. Compounds are added in a 9 pt dose response with the Tecan D300e Digital Dispenser, as well 4 times more concentrated than the end-concentration. DMSO concentration of all wells is adjusted to 0.8%, resulting in 0.2% as final concentration.\n60 μL per well of T-cell suspension are added to the prepared round bottom plate and resuspended with a manual multichannel. 100 μL/well of the resuspended T-cell suspension including treatments are then transferred cautiously to the over-night cultured MV-3 cells according to plate layout. 100 μL T-cell medium only is added to the outer MV-3 wells only. Final compound DR is starting at 20 μM with a dilution factor of 3.333. Final TCB concentration is between 1.5 pM to 5 pM and was determined for each T-cell donor individually by running TCB titrations. For each donor, a TCB concentration was chosen which corresponds to 10-20% MV3 baseline cell killing in the absence of compound treatment. Positive control is the reference compound A1 which is added in a DR, as well as additional wells with only 20 μM. 20 μM of reference compound A1 represent the positive stimulator control, TCB only (DMSO wells) the neutral control.\nAfter transfer of T-cells with treatment pre-dilutions, MV-3 cells are imaged by time-lapse microscopy using IncucyteZOOM™ (Essen BioScience, MI, USA). Imaging is performed every 3 hours for a total of 120 hours (10× objective, phase and red image channels, acquisition time 400 ms, Green/Red 4614 optical module). RFP object count per well is analysed in the IncucyteZOOM™ Software (Version 2019B Rev2) with a mask that was previously created and optimized for MV-3 cells. Raw data is exported as object count/well and values are normalized as % TCL compared to wells with MV-3 only, representing 100% growth and therefore 0% TCL.\nCalculated % TCL values are analysed in Genedata Screener using Roche Normalization PCT_POS_CTRL with MCSP-TCB only set as Neutral Control and 20 μM of the reference compound A1 set as Stimulator Control/100%.\nInduced TCL by compounds without TCB treatment or toxicity (observed in the PBS condition) were be flagged.", "data": [{"smiles": "N[C@H]1CS(=O)(=O)c2cc(F)c(-c3noc(C4(CO)CCCO4)n3)cc2N(Cc2ccc(-c3noc(C(F)(F)F)n3)cc2)C1=O", "note": "(stereo partly drawn) [Example 18, (3R)-3-amino-8-fluoro-7-[5-[2-(hydroxymethyl)tetrahydrofuran-2-yl]-1,2,4-oxadiazol-3-yl]-1,1-dioxo-5-[[4-[5-(trifluoromethyl)-1,2,4-oxadiazol-3-yl]phenyl]methyl]-2,3-dihydro-1λ^6,5-benzothiazepin-4-one]", "values": [{"measurement": "Emax", "value": 67, "unit": "%"}, {"measurement": "EC50", "value": 29, "unit": "nM"}]}, {"smiles": "CC(C)(C)c1nnc(-c2ccc3c(c2)N(Cc2ccc(-c4nnc(C(F)(F)F)o4)cc2)C(=O)[C@@H](N)CS3(=O)=O)o1", "note": "[Example 24, (3R)-3-amino-7-(5-tert-butyl-1,3,4-oxadiazol-2-yl)-1,1-dioxo-5-[[4-[5-(trifluoromethyl)-1,3,4-oxadiazol-2-yl]phenyl]methyl]-2,3-dihydro-1λ^6,5-benzothiazepin-4-one]", "values": [{"measurement": "Emax", "value": 108, "unit": "%"}, {"measurement": "EC50", "value": 273, "unit": "nM"}]}, {"smiles": "CC(N)(c1nnc(-c2ccc3c(c2)N(Cc2ccc(-c4noc(C(F)(F)F)n4)cc2)C(=O)[C@@H](N)CS3(=O)=O)o1)C(F)(F)F", "note": "(stereo partly drawn) [Example 32, (3R)-3-amino-7-[5-(1-amino-2,2,2-trifluoro-1-methyl-ethyl)-1,3,4-oxadiazol-2-yl]-1,1-dioxo-5-[[4-[5-(trifluoromethyl)-1,2,4-oxadiazol-3-yl]phenyl]methyl]-2,3-dihydro-1λ^6,5-benzothiazepin-4-one]", "values": [{"measurement": "Emax", "value": 100, "unit": "%"}, {"measurement": "EC50", "value": 120, "unit": "nM"}]}, {"smiles": "CC(C#N)c1nnc(-c2ccc3c(c2)N(Cc2ccc(-c4noc(C(F)(F)F)n4)cc2)C(=O)[C@@H](N)CS3(=O)=O)o1", "note": "(stereo partly drawn) [Example 35, 2-[5-[(3R)-3-amino-1,1,4-trioxo-5-[[4-[5-(trifluoromethyl)-1,2,4-oxadiazol-3-yl]phenyl]methyl]-2,3-dihydro-1λ^6,5-benzothiazepin-7-yl]-1,3,4-oxadiazol-2-yl]propanenitrile]", "values": [{"measurement": "Emax", "value": 91, "unit": "%"}, {"measurement": "EC50", "value": 373, "unit": "nM"}]}, {"smiles": "COC(F)(c1nnc(-c2ccc3c(c2)N(Cc2ccc(-c4noc(C(F)(F)F)n4)cc2)C(=O)[C@@H](N)CS3(=O)=O)o1)C(F)(F)F", "note": "(stereo partly drawn) [Example 37, (3R)-3-amino-1,1-dioxo-7-[5-(1,2,2,2-tetrafluoro-1-methoxy-ethyl)-1,3,4-oxadiazol-2-yl]-5-[[4-[5-(trifluoromethyl)-1,2,4-oxadiazol-3-yl]phenyl]methyl]-2,3-dihydro-1λ^6,5-benzothiazepin-4-one]", "values": [{"measurement": "Emax", "value": 133, "unit": "%"}, {"measurement": "EC50", "value": 58, "unit": "nM"}]}, {"smiles": "N[C@H]1CS(=O)(=O)c2ccc(-c3nnc(C4(N)CCCCC4)o3)cc2N(Cc2ccc(-c3noc(C(F)(F)F)n3)cc2)C1=O", "note": "[Example 39, (3R)-3-amino-7-[5-(1-aminocyclohexyl)-1,3,4-oxadiazol-2-yl]-1,1-dioxo-5-[[4-[5-(trifluoromethyl)-1,2,4-oxadiazol-3-yl]phenyl]methyl]-2,3-dihydro-1λ^6,5-benzothiazepin-4-one]", "values": [{"measurement": "Emax", "value": 72, "unit": "%"}, {"measurement": "EC50", "value": 190, "unit": "nM"}]}, {"smiles": "N[C@H]1CS(=O)(=O)c2ccc(-c3nnc(C4(CO)CCCO4)o3)cc2N(Cc2ccc(-c3noc(C(F)(F)F)n3)cc2)C1=O", "note": "(stereo partly drawn) [Example 54, (3R)-3-amino-7-[5-[2-(hydroxymethyl)tetrahydrofuran-2-yl]-1,3,4-oxadiazol-2-yl]-1,1-dioxo-5-[[4-[5-(trifluoromethyl)-1,2,4-oxadiazol-3-yl]phenyl]methyl]-2,3-dihydro-1λ^6,5-benzothiazepin-4-one]", "values": [{"measurement": "Emax", "value": 86, "unit": "%"}, {"measurement": "EC50", "value": 246, "unit": "nM"}]}, {"smiles": "N[C@H]1CS(=O)(=O)c2ccc(-c3nnc(N4CCOC(F)(F)C4)o3)cc2N(Cc2ccc(-c3nnc(C(F)(F)F)o3)cc2)C1=O", "note": "[Example 80]", "values": [{"measurement": "Emax", "value": 86, "unit": "%"}, {"measurement": "EC50", "value": 257, "unit": "nM"}]}, {"smiles": "Cn1nc(C(F)(F)F)cc1-c1ccc(CN2C(=O)[C@@H](N)CS(=O)(=O)c3ccc(-c4nnc(C(C)(C)C)o4)cc32)cc1", "note": "[Example 92]", "values": [{"measurement": "Emax", "value": 99, "unit": "%"}, {"measurement": "EC50", "value": 120, "unit": "nM"}]}, {"smiles": "N[C@H]1CS(=O)(=O)c2ccc(-c3nnc(N4CCC(F)(F)CC4)o3)cc2N(Cc2ccc(-n3ccc(C(F)(F)F)n3)cc2)C1=O", "note": "[Example 162, (3R)-3-amino-7-[5-(4,4-difluoro-1-piperidyl)-1,3,4-oxadiazol-2-yl]-1,1-dioxo-5-[[4-[3-(trifluoromethyl)pyrazol-1-yl]phenyl]methyl]-2,3-dihydro-1λ^6,5-benzothiazepin-4-one]", "values": [{"measurement": "Emax", "value": 100, "unit": "%"}, {"measurement": "EC50", "value": 168, "unit": "nM"}]}]}
